Measurements published in patent US6706740B2, “Fungicidal heterocyclic aromatic amides and their compositions, methods of use and preparation” (Dow AgroSciences LLC, priority 1999, dated 2004).
Like-named read-outs stand apart in the source and are kept apart here.

Experiments:
[1] = test system: Phytophthora infestans—PHYTIN; assay: whole plant or invertebrate; type: in vivo; details: Phytophthora, in Solanum lycopersicum, 24 h, read-out: PHYTIN in vivo 1 Day Protectant
[2] = test system: Rhizoctonia solani (RHIZSO); assay: microbe, parasite or virus in culture; type: cell-based; details: Rhizoctonia solani, read-out: RHIZSO in vitro Growth Inhibition
[3] = test system: Septoria tritici—SEPTTR; assay: Leaf Blotch of Wheat, in vivo whole plant, 24 Hour Protectant; details: for pest or weed control at 100 ppm: Zymoseptoria tritici, 24 h, read-out: SEPTTR in vivo 1 Day Protectant
[4] = test system: Ustilago maydis (USTIMA); assay: microbe, parasite or virus in culture; type: cell-based; details: Mycosarcoma maydis, read-out: USTIMA in vitro Growth Inhibition
[5] = test system: Puccinia recondita—PUCCRT; assay: Brown Rust of Wheat, in vivo whole plant, 24 Hour Protectant; details: for pest or weed control at 100 ppm: Puccinia, control of fungal infection vs untreated plants, read-out: PUCCRT in vivo 1 Day Protectant
[6] = test system: Leptosphaeria nodorum—LEPTNO; assay: Glume Blotch of Wheat, in vivo whole plant, 24 Hour Protectant; details: for pest or weed control at 100 ppm: Leptosphaeria, read-out: LEPTNO in vivo 1 Day Protectant
[7] = test system: Stagonospora nodorum (Leptosphaeria nodorum—LEPTNO); assay: In vitro fungal growth inhibition, Stagonospora nodorum (LEPTNO); type: cell-based; details: Leptosphaeria, read-out: LEPTNO in vitro Growth Inhibition
[8] = test system: Mycosphaerella graminicola (Septoria tritici—SEPTTR); assay: In vitro fungal growth inhibition, Mycosphaerella graminicola (SEPTTR); type: cell-based; details: Zymoseptoria tritici, read-out: SEPTTR in vitro Growth Inhibition
[9] = test system: Erysiphe graminis—ERYSGT; assay: Powdery Mildew of Wheat, in vivo whole plant, 24 Hour Protectant; details: Erysiphe, read-out: ERYSGT in vivo 1 Day Protectant
[10] = test system: Phytophthora infestans (PHYTIN); assay: microbe, parasite or virus in culture; type: cell-based; details: Phytophthora infestans, read-out: PHYTIN in vitro Growth Inhibition
[11] = test system: Magnaporthe grisea (Pyricularia oryzae—PYRIOR); assay: microbe, parasite or virus in culture; type: cell-based; details: Pyricularia oryzae, read-out: PYRIOR in vitro Growth Inhibition
[12] = 100 ppm spray, wheat, 24 hour protectant, control of fungal infection vs untreated plants
[13] = 100 ppm spray, wheat, 24 hour protectant
[14] = 100 ppm spray, wheat, 24 hour protectant, % control of fungal infection vs untreated plants
[15] = wheat plants sprayed at 100 ppm, inoculated after 24 hours, control of fungal infection vs untreated plants

With `COc1ccnc(C(=O)NC(C(=O)OCC(C)C)C(C)OC(=O)C(C)Cc2ccccc2)c1O` (stereo not shown) [Compound 360] the pest or weed control at 100 ppm [1] was less than 25%, the inhibition at 25 ppm [2] was less than 80% and the pest or weed control at 100 ppm [3, 12] was 25 to 74%. For the same molecule, the inhibition at 25 ppm [4] was less than 80%, the pest or weed control at 100 ppm [5, 13] was 25 to 74% and the “LEPTNO in vivo 1 Day Protectant” value [6, 12] was “+ +”. The inhibition at 25 ppm ([7]; 25 ppm in growth medium) was less than 80%, the inhibition at 25 ppm ([8]; 25 ppm in growth medium) was less than 80% and the pest or weed control at 100 ppm [9, 12] was less than 25%. The inhibition at 25 ppm [10] was less than 80% and the inhibition at 25 ppm [11] was less than 80%.
For `COc1ccnc(C(=O)N[C@H]2COC(=O)[C@H](Cc3ccccc3)[C@@H](OC(=O)C(C)C)[C@H](C)OC2=O)c1OC(=O)CCCBr` [Compound 625], the pest or weed control at 100 ppm [1] was less than 25%, the inhibition at 25 ppm [2] was less than 80% and the “SEPTTR in vivo 1 Day Protectant” value [3, 14] was “+ +”. For the same molecule, the inhibition at 25 ppm [4] was less than 80%, the “PUCCRT in vivo 1 Day Protectant” value [5, 14] was “+ +” and the “LEPTNO in vivo 1 Day Protectant” value [6, 14] was “+ +”. It also gave an inhibition at 25 ppm ([7]; 25 ppm in growth medium) greater than 80%, an inhibition at 25 ppm ([8]; 25 ppm in growth medium) of less than 80% and a pest or weed control at 100 ppm [9, 14] of less than 25%. It also gave an inhibition at 25 ppm [10] of less than 80% and an inhibition at 25 ppm [11] of less than 80%.
`COc1ccc(Oc2ccc(NC(=O)c3nccc(OC)c3O)cc2)cc1` [Compound 435] was tested, and the pest or weed control at 100 ppm [1] was less than 25%, the inhibition at 25 ppm [2] was less than 80% and the pest or weed control at 100 ppm [3, 12] was less than 25%. It also gave an inhibition at 25 ppm [4] of less than 80%, a pest or weed control at 100 ppm [5, 13] of less than 25% and a pest or weed control at 100 ppm [6, 12] of 25 to 74%. The inhibition at 25 ppm ([7]; 25 ppm in growth medium) was less than 80%, the inhibition at 25 ppm ([8]; 25 ppm in growth medium) was greater than 80% and the pest or weed control at 100 ppm [9, 12] was less than 25%. It also gave an inhibition at 25 ppm [10] of less than 80% and an inhibition at 25 ppm [11] of less than 80%.
`O=C(Nc1ccc(Oc2cccc(C(F)(F)F)c2)cc1)c1nscc1O` [Compound 551] gave a pest or weed control at 100 ppm [1] of less than 25%, an inhibition at 25 ppm [2] of less than 80% and a pest or weed control at 100 ppm [3, 15] of 25 to 74%. For the same molecule, the inhibition at 25 ppm [4] was less than 80%, the pest or weed control at 100 ppm ([5]; wheat plants sprayed at 100 ppm, inoculated after 24 hours) was less than 25% and the pest or weed control at 100 ppm [6, 15] was 25 to 74%. The inhibition at 25 ppm ([7]; 25 ppm in the growth medium) was less than 80%, the inhibition at 25 ppm ([8]; 25 ppm in the growth medium) was less than 80% and the pest or weed control at 100 ppm [9, 15] was 25 to 74%. It also gave an inhibition at 25 ppm [10] of less than 80% and an inhibition at 25 ppm [11] of less than 80%.
With `COc1ccnc(C(=O)N[C@@H]2C[C@@H](O[Si](C)(C)C(C)(C)C)O[C@@H](C)[C@@H]2OCc2ccccc2)c1O` [Compound 327] the pest or weed control at 100 ppm [1] was 25 to 74%, the inhibition at 25 ppm [2] was less than 80% and the “SEPTTR in vivo 1 Day Protectant” value [3, 12] was “+ +”. It also gave an inhibition at 25 ppm [4] of less than 80%, a pest or weed control at 100 ppm [5, 13] of less than 25% and a pest or weed control at 100 ppm [6, 12] of 25 to 74%. The inhibition at 25 ppm [7] was less than 80%, the inhibition at 25 ppm [8] was less than 80% and the pest or weed control at 100 ppm [9, 12] was less than 25%. It also gave an inhibition at 25 ppm [10] of less than 80% and an inhibition at 25 ppm [11] of less than 80%.
`CCCCCCCCCCCCC(=O)O[C@H]1[C@H](C)OC(=O)[C@@H](NC(=O)c2nccc(OC)c2O)COC(=O)[C@@H]1Cc1ccccc1` [Compound 397] was tested, and the pest or weed control at 100 ppm [1] was less than 25%, the inhibition at 25 ppm [2] was less than 80% and the pest or weed control at 100 ppm [3, 12] was 25 to 74%. The inhibition at 25 ppm [4] was less than 80%, the pest or weed control at 100 ppm [5, 13] was 25 to 74% and the pest or weed control at 100 ppm [6, 12] was 25 to 74%. It also gave an inhibition at 25 ppm ([7]; 25 ppm in growth medium) of less than 80%, an inhibition at 25 ppm ([8]; 25 ppm in growth medium) of less than 80% and a pest or weed control at 100 ppm [9, 12] of less than 25%. The inhibition at 25 ppm [10] was less than 80% and the inhibition at 25 ppm [11] was less than 80%.
`COc1ccnc(C(=O)N[C@H]2COC(=O)[C@H](Cc3ccccc3)[C@@H](OC(=O)NC(C)(C)C)[C@H](C)OC2=O)c1O` [Compound 400] showed a pest or weed control at 100 ppm [1] of less than 25%, an inhibition at 25 ppm [2] of less than 80% and a pest or weed control at 100 ppm [3, 12] of 25 to 74%. For the same molecule, the inhibition at 25 ppm [4] was less than 80%, the pest or weed control at 100 ppm [5, 13] was 25 to 74% and the “LEPTNO in vivo 1 Day Protectant” value [6, 12] was “+ +”. The inhibition at 25 ppm ([7]; 25 ppm in growth medium) was less than 80%, the inhibition at 25 ppm ([8]; 25 ppm in growth medium) was less than 80% and the pest or weed control at 100 ppm [9, 12] was 25 to 74%. For the same molecule, the inhibition at 25 ppm [10] was less than 80% and the inhibition at 25 ppm [11] was greater than 80%.
`COc1ccnc(C(=O)Nc2cc(C)c(OC(=O)C(C)C)c(C)c2)c1O` [Compound 455] showed a pest or weed control at 100 ppm [1] of less than 25%, an inhibition at 25 ppm [2] of less than 80% and a pest or weed control at 100 ppm [3, 12] of 25 to 74%. The inhibition at 25 ppm [4] was greater than 80%, the pest or weed control at 100 ppm [5, 13] was less than 25% and the pest or weed control at 100 ppm [6, 12] was 25 to 74%. It also gave an inhibition at 25 ppm ([7]; 25 ppm in growth medium) greater than 80%, an inhibition at 25 ppm ([8]; 25 ppm in growth medium) of less than 80% and a pest or weed control at 100 ppm [9, 12] of less than 25%. For the same molecule, the inhibition at 25 ppm [10] was less than 80% and the inhibition at 25 ppm [11] was less than 80%.
